In patent US20210379010A1, “COMPOSITIONS COMPRISING CANNABINOIDS FOR USE IN THE TREATMENT OF BIOFILM AND CONDITIONS ASSOCIATED WITH MICROBIAL, FUNGAL, BACTERIAL INFECTIONS” (Yissum Research Development Company of The Hebrew …, priority 2018, published 2021):
Converted amounts (≈) assume the structure as drawn. “And” between values parts separate entries of the source, which are not always exact repeats. Identical values can stand only once.

What was measured:
[1] = test system: S. mutans biofilm; assay: S. mutans biofilm formation inhibition; format: cell-based
[2] = test system: S. aureus MRSA 24433; assay: Growth of MRSA 24433, cannabinoid alone and combined with antibiotic (MIC/FIC/FICI); format: cell-based; settings: MRSA 24433 growth; for MIC AEA: AEA alone; for FIC AEA: MIC of AEA in combination with methicillin
[3] = test system: S. aureus MRSA 24433 biofilm; assay: Biofilm formation of MRSA 24433, cannabinoid alone and combined with antibiotic (MBIC/FBIC/FBICI); format: cell-based; settings: for MBIC AEA: AEA alone; for FBIC AEA: MBIC of AEA in combination with methicillin
[4] = test system: S.aureus MRSA 33592; assay: Growth of MRSA 33592, cannabinoid alone and combined with antibiotic (MIC/FIC/FICI); format: cell-based; settings: MRSA 33592 growth; for MIC AEA: AEA alone, in µg/mL; for MIC ARAS: ARAS alone
[5] = test system: S.aureus MRSA 33592 biofilm; assay: Biofilm formation of MRSA 33592, cannabinoid alone and combined with antibiotic (MBIC/FBIC/FBICI); format: cell-based; settings: for MBIC AEA: AEA alone; for MBIC ARAS: ARAS alone
[6] = test system: S.aureus MRSA 43300; assay: Growth of MRSA 43300, cannabinoid alone and combined with antibiotic (MIC/FIC/FICI); format: cell-based; settings: MRSA 43300 growth; for MIC AEA: AEA alone; for MIC ARAS: ARAS alone
[7] = test system: S.aureus MRSA 43300 biofilm; assay: Biofilm formation of MRSA 43300, cannabinoid alone and combined with antibiotic (MBIC/FBIC/FBICI); format: cell-based; settings: for MBIC AEA: AEA alone; for MBIC ARAS: ARAS alone
[8] = test system: V. harveyi quorum sensing; assay: Quorum sensing assay, relative bioluminescence of V. harveyi mutant strains; format: cell-based; settings: sub-MIC concentrations, dose response up to 100 μg/ml
Description: FIG. 6 Relative Bioluminescence Unit (LUM/(O.D(595 nm))) (RLU) of different mutant strains of bacteria V. harveyi when exposed to different sub-MIC concentrations of AEA.

[9] = test system: C. albicans biofilm; assay: MTT assay of C. albicans biofilm; format: cell-based
Method: To investigate the effect of the agents on preformed biofilms, biofilms were allowed to mature in for 24 h at 37° C. in a 6-well plate. The biofilms were washed twice with PBS. The active agents were then applied. The plates were further incubated for 24 h at 37° C. The amounts of biofilms, were determined quantitatively using a standard MTT reduction assay as described previously. Briefly, biofilms were overlaid with […] of 3-(4,5-dimethyl-2-thiazolyl)-2,5-diphenyl-2H-tetrazolium bromide (MTT) and incubated for 2 h at 37° C. Under these conditions, the lightly yellowish MTT was reduced to a blue tetrazolium salt accumulated within the metabolic active biofilms. The stain was then dissolved in DMSO and the absorbance value was measured at 570 nm. The accumulation of tetrazolium salt by the reduction of MTT is proportional to the number of viable cells growing in biofilm. Prior to dissolving in DMSO, biofilms were photographed and visualized. Assay was performed in triplicate.

[10] = test system: P. aeruginosa biofilm; assay: CLSM of treated P. aeruginosa biofilm
[11] = test system: MRSA strain CI; assay: Colony spreading on soft agar, MRSA CI
Method: (§1) The swimming assay was performed on soft agar plates. 0.2% agar medium was prepared and autoclaved. The bacteria were exposed to the tested agents. 3 μl of overnight bacterial culture (O.D 595˜0.5) was inoculated at the centre of the agar plate. […] The plates were then incubated for 15 h.

[12] = test system: MRSA strain 33592; assay: Colony spreading on soft agar, MRSA 33592
Method: as §1

[13] = test system: MRSA strain 43300; assay: Colony spreading on soft agar, MRSA 43300
Method: as §1

[14] = test system: S. mutans biofilm; assay: CLSM live/dead staining of S. mutans biofilm
Method: The bacterial viability and vitality of was analyzed by CLSM (Olympus Fluoview 300, Olympus, Japan) with a UPLSA 10×/0.4 lenses. The biofilm samples were grown overnight on 96 well. The biofilm was washed carefully using 200 μl PBS solution after overnight incubation, and then stained with 50 μl of LIVE/DEAD BacLight fluorescent dye (Invitrogen Life Technologies, Carlsbad, Calif., USA) (1:100) for 20 min in the dark, at room temperature. This staining allowed to distinguish the live organisms from the dead ones. […] The biofilm thickness was examined by generating the optical sections that were acquired at spacing steps of 10 μm Image J program (The National Institute of Health) was used for fluorescence analysis which calculates the fluorescence intensity per area for each color separately.

[15] = test system: C. albicans biofilm; assay: C. albicans biofilm formation inhibition; format: cell-based; settings: single C. albicans biofilm formation
[16] = test system: C. albicans; assay: C. albicans growth (MIC); format: cell-based; settings: Candida albicans; single C. albicans growth; highest tested dose 64 μg/ml; read-out: MIC, fungal growth
[17] = test system: mixed C. albicans-S. mutans biofilm; assay: Co-species C. albicans-S. mutans biofilm formation inhibition; format: cell-based
[18] = test system: mixed S. mutans-C. albicans; assay: Growth of C. albicans-S. mutans co-culture; format: cell-based; settings: mixed S. mutans-C. albicans growth
[19] = test system: S. mutans; assay: S. mutans growth (MIC); format: cell-based; settings: Streptococcus mutans; single S. mutans growth; read-out: MIC
[20] = test system: fluconazole resistant C. albicans strains; format: cell-based; settings: each agent alone or in combination; data not shown
[21] = test system: fluconazole resistant C. albicans strain DSY551 biofilm; settings: Table 2
[22] = test system: fluconazole resistant C. albicans strain DSY735 biofilm; settings: Table 2
[23] = MBIC of ARAS in combination with fluconazole

CCCCC/C=C\C/C=C\C/C=C\C/C=C\CCCC(=O)NCCO [AEA, arachidonoyl ethanolamide]
inhibition of S. mutans biofilm formation ([1]; highest tested dose of 64 μg/ml): 45%
MIC AEA ([2]; Table 1): >64 µg/mL
MIC AEA ([2]; Table 6B): > 256 µg/mL
FIC AEA ([2]; Table 1): 16 µg/mL
FIC AEA ([2]; Table 6B): 16
MBIC AEA ([3]; Table 1): 32 µg/mL
MBIC AEA ([3]; Table 6B): 32
FBIC AEA ([3]; Table 1): 8 µg/mL
FBIC AEA ([3]; Table 6B): 8
MIC AEA ([4]; Table 6A): >256
MIC AEA ([4]; Table 7): >256
MIC AEA ([4]; Table 8A): >256
decrease of MIC in combination ([4]; AEA with gentamicin vs agent alone): more than 32 fold
FIC AEA ([4]; MIC of AEA in combination with ampicillin, Table 8A): 8
FIC AEA ([4]; MIC of AEA in combination with gentamicin, Table 7): 8
FIC AEA ([4]; MIC of AEA in combination with methicillin, Table 6A): 16
MBIC AEA ([5]; Table 6A): 64
MBIC AEA ([5]; Table 7): 64
MBIC AEA ([5]; Table 8A): 64
FBIC AEA ([5]; MBIC of AEA in combination with ampicillin, Table 8A): 8
FBIC AEA ([5]; MBIC of AEA in combination with gentamicin, Table 7): 8
FBIC AEA ([5]; MBIC of AEA in combination with methicillin, Table 6A): 8
MIC AEA ([6]; Table 6C): > 256 µg/mL
MIC AEA ([6]; Table 8B): > 256 µg/mL
FIC AEA ([6]; MIC of AEA in combination with ampicillin, Table 8B): 16
FIC AEA ([6]; MIC of AEA in combination with methicillin, Table 6C): 16
MBIC AEA ([7]; Table 6C): >256
MBIC AEA ([7]; Table 8B): >256
FBIC AEA ([7]; MBIC of AEA in combination with ampicillin, Table 8B): 16
FBIC AEA ([7]; MBIC of AEA in combination with methicillin, Table 6C): 32
quorum sensing (relative bioluminescence, AUC vs control) [8]: inhibition
C. albicans biofilm formation (MTT assay) [9]: dose-dependent inhibition
layers/depth of P. aeruginosa biofilm [10]: reduced layers/depth of biofilm
P. aeruginosa biofilm density ([10]; compared with PEA): more significant reduction in biofilm density
reduction of colony diameter (spreading) vs untreated control ([11]; AEA 64 μg/ml): 88% and 88 ± 1.9%
reduction of colony diameter (spreading) vs untreated control ([12]; AEA 64 μg/ml): 84% and 84 ± 1.8%
reduction of colony diameter (spreading) vs untreated control ([13]; AEA 64 μg/ml): 73% and 73 ± 2.6%
S. mutans biofilm formation (CLSM) [14]: dose-dependent inhibition

CCCCC/C=C\C/C=C\C/C=C\C/C=C\CCCC(=O)N[C@@H](CO)C(=O)O [ARAS, arachidonoyl serine]
MBIC50 (minimal biofilm inhibitory concentration 50, 50% of biofilm inhibition) [15]: 16 µg/mL
MIC [16]: > 64 µg/mL
MBIC50 [17]: 32 µg/mL
MIC [18]: > 64 µg/mL
MIC [19]: 64 µg/mL (≈ 163 µM)
inhibition at 8 µg/mL ([1]; Streptococcus mutans, 8 μg/ml, read-out: inhibition of single S. mutans biofilm formation): > 50%
MIC ARAS ([2]; ARAS alone, Table 3B): > 256 µg/mL
FIC ARAS ([2]; MIC of ARAS in combination with methicillin, Table 3B): >64
MBIC ARAS ([3]; ARAS alone, Table 3B): 32
FBIC ARAS ([3]; MBIC of ARAS in combination with methicillin, Table 3B): 16
MIC ARAS ([4]; Table 3A): 64 µg/mL
MIC ARAS ([4]; Table 4): 32 µg/mL
MIC ARAS ([4]; Table 5A): 32 µg/mL
FIC ARAS ([4]; MIC of ARAS in combination with ampicillin, Table 5A): 8
FIC ARAS ([4]; MIC of ARAS in combination with gentamycin, Table 4): 4
FIC ARAS ([4]; MIC of ARAS in combination with methicillin, Table 3A): 16
MBIC ARAS ([5]; Table 3A): 32
MBIC ARAS ([5]; Table 4): 32
MBIC ARAS ([5]; Table 5A): 32
FBIC ARAS ([5]; MBIC of ARAS in combination with ampicillin, Table 5A): 16
FBIC ARAS ([5]; MBIC of ARAS in combination with gentamycin, Table 4): 4
FBIC ARAS ([5]; MBIC of ARAS in combination with methicillin, Table 3A): 16
MIC ARAS ([6]; Table 3C): 64 µg/mL
MIC ARAS ([6]; Table 5B): 64 µg/mL
FIC ARAS ([6]; MIC of ARAS in combination with ampicillin, Table 5B): 16
FIC ARAS ([6]; MIC of ARAS in combination with methicillin, Table 3C): 16
MBIC ARAS ([7]; Table 3C): 32
MBIC ARAS ([7]; Table 5B): 32
FBIC ARAS ([7]; MBIC of ARAS in combination with ampicillin, Table 5B): 8
FBIC ARAS ([7]; MBIC of ARAS in combination with methicillin, Table 3C): 8
growth of fluconazole resistant fungal strains [20]: not affected
MBIC ARAS ([21]; ARAS alone): 64 µg/mL
FBIC ARAS [21, 23]: 32 µg/mL
MBIC ARAS ([22]; ARAS alone): 64 µg/mL
FBIC ARAS [22, 23]: 32 µg/mL
inhibition of colony spreading vs untreated control ([11]; ARAS 64 μg/ml (sub-MIC)): 64% and 64 ± 2.5%
inhibition of colony spreading vs untreated control ([12]; ARAS 16 μg/ml (sub-MIC)): 65% and 65 ± 3.4%
inhibition of colony spreading vs untreated control ([13]; ARAS 32 μg/ml (sub-MIC)): 46% and 46 ± 2.8%
